From patent US20140249143A1, “Compounds And Methods For Enhancing Innate Immune Responses” (GlaxoSmithKline LLC, priority 2011, published 2014)

How the values were obtained:
[1] = test system: HCV genotype 1a subgenomic replicon; assay: Anti-Hepatitis C replicon assay, genotype 1a (luciferase); type: cell-based; conditions: Hepatitis C virus; luciferase activity measured 48 hours later; read-out: HCV Genotype 1A Replicon pEC50 (converted)
Procedure: (§1) Compounds were assayed for activity against HCV using the genotype 1a and 1b subgenomic replicon model systems. Stable cell lines bearing the genotype 1a and 1b replicons were used for screening of compounds. Both replicons are bicistonic and contain the firefly luciferase gene. The ET cell line is stably transfected with RNA transcripts harboring a I389luc-ubi-neo/NS3-3′/ET replicon with firefly luciferase-ubiquitin-neomycin phosphotransferase fusion protein and EMCV-IRES driven NS3-5B polyprotein containing the cell culture adaptive mutations (E1202G; T1280I; K1846T) (Krieger at al, 2001 and unpublished). The genotype 1a replicon is a stable cell line licensed from Apath LLC, modified to contain the firefly luciferase gene. The cells were grown in DMEM, supplemented with 10% fetal calf serum, 2 mM Glutamine, Penicillin (100 IU/mL)/Streptomycin (100 μg/mL), 1× nonessential amino acids, and 250-500 μg/mL G418 (“Geneticin”). They were all available through Life Technologies (Bethesda, Md.). The cells were plated at 0.5×10^4 cells/well in 384 well plates containing compounds. The final concentration of compounds ranged between 0.03 pM to 50 μm and the final DMSO concentration of 0.5-1%.
(§2) Luciferase activity was measured 48 hours later by adding a Steady glo (Promega, Madison, Wis.). Percent inhibition of replication data was plotted relative to no compound control. Under the same condition, cytotoxicity of the compounds was determined using cell titer glo (Promega, Madison, Wis.). IC50s were determined from a 10 point dose response curve using 3-4-fold serial dilution for each compound, which spans a concentration range>1000 fold. BioAssay determines the level of inhibition for each compound by normalizing cross-talk corrected plate values against the negative (low or background, cells with no compound present) and positive (high DMSO, no cells) controls to determine Percent Inhibition:
(§3) These normalized values are exported to IC50 where they are plotted against the molar compound concentrations using the standard four parameter logistic equation: […]

[2] = test system: HCV genotype 1b subgenomic replicon; assay: Anti-Hepatitis C replicon assay, genotype 1b (luciferase); type: cell-based; conditions: Hepatitis C virus; luciferase activity measured 48 hours later; read-out: HCV Genotype 1B Replicon pEC50 (converted)
Procedure: as §1, §2, §3

[3] = test system: ISG56 (Interferon-Stimulated Gene 56) promoter ISRE; assay: ISG56 luciferase reporter assay in HEK 293 cells; type: cell-based; conditions: Homo sapiens, HEK293; HEK 293 reporter, 24 hours; 100% = small molecule control test compound; read-out: ISG56 (Average Max Response) %
Procedure: Compounds of the present invention were tested against a HEK (Human Embryonic Kidney) 293 cell line that was stably transfected with a firefly luciferase reporter gene under the control of the ISG56 (Interferon-Stimulated Gene 56) promoter ISRE (Interferon-Stimulated Response Element). While the ISRE is in the opposite orientation of the wild type promoter, literature^1 cites that the response elements are pallindromic and function properly in either orientation. ^1Reich, N., Evans, B., Levy, D., Fahey, D., Knight, E., Damell, J. E. (1987) Interferon-induced transcription of a gene encoding a 15-kDa protein depends on an upstream enhancer element. See, Proc. Natl. Acad. Sci. 84, (6394-6398).
In preparation for the assay, test compounds were serially diluted 3-fold in DMSO from a typical top concentration of 5 mM and plated at 0.2 μL in a 384-well, polystyrene, tissue culture treated plate with lid (Greiner Bio-One North America, Inc., Monroe, N.C.) to generate 11-point dose response curves in the assay. Low control wells (0% response) contained 0.2 μL of DMSO alone, and high control wells (100% response) contained 0.2 μL of a small molecule control test compound.
Frozen stocks of the transfected HEK 293 cells were washed and recovered in DMEM I Ham's F-12 media (Invitrogen Corporation, Carlsbad, Calif.) supplemented with 10% v/v qualified Australian fetal bovine serum (FBS) (Invitrogen Corporation, Carlsbad, Calif.), 1× GlutaMAX™ (Invitrogen Corporation, Carlsbad, Calif.), 1×MEM non-essential amino acids (NEAA) (Invitrogen Corporation, Carlsbad, Calif.) and 500 μg/ml Geneticin® (Invitrogen Corporation, Carlsbad, Calif.). The cells were diluted to 500,000 cells/mL in the supplemented DMEM/Ham's F-12 media, and 20 μL of the cell suspension were added to each well of the previously prepared 384-well compound plate, resulting in 10,000 cells/well. The plate, with lid, were placed in a 37° C., 5% CO2 humidified incubator for 24 hours.
Following incubation, the plates were removed and placed on the bench top without lids to equilibrate to room temperature for 30 minutes. Steady-Glo® (Promega Corporation, Madison, Wis.) was prepared according to the manufacturer's instructions, and 10 μL were added to each plate well. After a twenty minute incubation at room temperature, luminescence was read on a ViewLux™ (PerkinElmer Inc., Waltham, Mass.).
The data for dose responses were plotted as % activation versus compound concentration following normalization using the formula 100*((U−C1)/(C2−C1)), where U was the unknown value, C1 was the average of the low (0% response) control wells and C2 was the average of the high (100% response) control wells. Curve fitting was performed with the equation y=A+((B−A)/(1+(10^x/10^C)^D)), where A was the minimum response, B was the maximum response, C was the log(EC50) and D was the Hill slope. The results for each test compound were recorded as pEC50 values (—C in the above equation) and as max response values at a given concentration.

[4] = test system: reconstructed human epidermis (RHE) keratinocytes; assay: JAK/STAT induction in reconstructed human epidermis (western blot, real-time PCR); type: cell-based; conditions: 10 μM (IFN-alpha 100 U/mL), 6 and 72 hrs
Procedure: First, reconstructed human epidermis (“RHE”) consisting of cultured human keratinocyte cells were incubated in triplicate with media containing either the media alone, media+0.1% DMSO, media containing 10 μM of several putative JAK/STAT activator compounds described herein in Tables 1 and 2 (Example 1, Example 2, Example 11, and compound no. 89 (as a negative control)), or media containing 100 U/mL of a positive control Interferon-alpha (IFN-alpha) recombinant protein at 37° C. in a humidified atmosphere containing 5% CO2, for 6 and 72 hours.
At the end of the incubation period, the RHE tissues were cut into two sections. One section was ¼ of the total size and the second section was […].

ISGs and cytokines mRNA = assay: Induction of ISGs in mice in vivo; parameters: species or system Balb/c mice; conditions: Example 1 oral 300 mg/kg; murine IFNα2 30 ug/kg intravenously
Procedure: Naive Balb/c mice were purchased from Charles River Laboratories (Wilmington, Mass.) and administered with murine IFNα2 (30 ug/kg) intravenously or administered with oral Example 1 (300 mg/kg in 30/70% solutol/polyethylene glycol 400). The mice were then euthanized by CO2 inhalation at 0.5, 2, 6, 8, and 24 hours for sample collection. Four mice per dose group were tested.
For RNA isolation, the blood was collected in an RNAprotect™ tube (Qiagen) and processed with RNeasy Protect™ animal blood kit (Qiagen) according to the manufacturer's protocol. To preserve RNA, 30-200 mg of tissue pieces were stored in RNAlater™ solution (Invitrogen) until use. For RNA isolation, the thawed tissues were homogenized using a TissueLyser™ system (Qiagen) and processed with RNeasy 96 Universal Tissue Kit™ (Qiagen) according to the manufacturer's protocol. To remove DNA contamination, on-plate DNase digestion was included during the RNA purification.
(§4) For real time RT-PCR, cDNA was made using High Capacity cDNA Reverse Transcription Kit™ (Applied Biosystems). Gene expression was measured using TaqMan Fast Universal PCR Master Mix™ (Applied Biosystems) and gene specific probes and murine primers in HT7900 FAST System™ (Invitrogen). As housekeeping genes, actin and GAPDH were used for normalization. Data was calculated by the ΔΔCt method and fold change determined compared to non-treated control samples.

human JAK1 = biological target: T1, human JAK1 (Homo sapiens, UniProt P23458); assay: JAK1 reconstitution in U4A and 2fGH cells (phosphor-STAT1 western blot, Taqman mRNA); type: cell-based; conditions: 100 U/ml
T1 construct: expressed in transfected cells; host or cells: U4A cells (JAK1-deficient derivative of the human fibroblast line 2fGH), transduced with a baculovirus mammalian expression system
Procedure: 2fGH and U4A cells were obtained from the Cleveland Clinic. 2fGH is a human fibroblast cell line and U4A cell line is a derivative 2fGH harboring a defect in JAK1 expression (Muller, et al., Nature 366, 129-135 (1993)). Green fluoroscent protein (GFP) or human JAK1 was transduced in U4A cells by baculovirus mammalian expression system. After 24 hours post transduction, the cells were treated with DMSO, Example 1 (10 μM), IFNα (100 U/ml), IFNβ (100 U/ml), or IFNγ (100 U/ml). Untransduced U4A cells and 2fGH cells were included as controls for 6 or 18 hours. The cells were harvested at indicated time points and used for detecting phosphor-STAT1 by western blot (FIG. 10, panel A) or for mRNA analysis by Taqman quantitation (FIG. 10, panel B).
The total cell lysates were analyzed on a 4-20% SDS-PAGE gradient gel and followed by immunoblotting using anti-phopho STAT1 antibody (Cell Signaling). The level of actin was monitored as a loading control. The bands were visualized by the alkaline phosphatase activity conjugated with the secondary antibody (Promega) using ProtoBlot II AP system (Promega).
as §4, with “Gene” for “For real time RT-PCR, cDNA was made using High Capacity cDNA Reverse Transcription Kit™ (Applied Biosystems). Gene”, “Mix” for “Mix™”, “System” for “System™”

T1 sequence (P23458 whole entry): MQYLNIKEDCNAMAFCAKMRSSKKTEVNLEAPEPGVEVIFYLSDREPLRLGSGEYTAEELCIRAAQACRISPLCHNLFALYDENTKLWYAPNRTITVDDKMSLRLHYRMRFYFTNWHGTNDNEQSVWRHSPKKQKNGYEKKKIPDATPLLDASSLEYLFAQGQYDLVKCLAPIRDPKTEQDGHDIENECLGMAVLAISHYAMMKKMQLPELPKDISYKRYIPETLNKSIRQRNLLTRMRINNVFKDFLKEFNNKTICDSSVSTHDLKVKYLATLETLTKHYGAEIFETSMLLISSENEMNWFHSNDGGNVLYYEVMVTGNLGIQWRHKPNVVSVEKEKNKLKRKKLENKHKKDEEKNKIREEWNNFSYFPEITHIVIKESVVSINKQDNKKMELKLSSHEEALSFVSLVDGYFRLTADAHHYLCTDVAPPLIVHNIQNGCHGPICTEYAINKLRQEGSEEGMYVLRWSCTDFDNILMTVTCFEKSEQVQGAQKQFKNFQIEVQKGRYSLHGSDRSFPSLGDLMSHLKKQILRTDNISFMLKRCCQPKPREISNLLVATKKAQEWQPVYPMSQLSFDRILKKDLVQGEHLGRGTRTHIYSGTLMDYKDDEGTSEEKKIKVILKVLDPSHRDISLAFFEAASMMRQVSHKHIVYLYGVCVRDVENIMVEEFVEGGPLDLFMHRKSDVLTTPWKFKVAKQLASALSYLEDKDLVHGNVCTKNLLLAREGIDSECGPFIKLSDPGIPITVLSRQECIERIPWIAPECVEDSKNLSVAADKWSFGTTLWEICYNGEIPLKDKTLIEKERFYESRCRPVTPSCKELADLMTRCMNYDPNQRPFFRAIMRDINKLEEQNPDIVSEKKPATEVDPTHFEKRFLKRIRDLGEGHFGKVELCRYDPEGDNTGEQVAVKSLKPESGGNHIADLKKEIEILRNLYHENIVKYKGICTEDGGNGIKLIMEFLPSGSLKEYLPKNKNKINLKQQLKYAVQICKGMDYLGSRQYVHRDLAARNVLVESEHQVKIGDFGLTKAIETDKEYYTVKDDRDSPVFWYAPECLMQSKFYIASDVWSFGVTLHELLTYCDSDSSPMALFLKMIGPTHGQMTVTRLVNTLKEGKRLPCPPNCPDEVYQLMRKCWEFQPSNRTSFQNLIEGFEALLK

`FC(F)(F)c1cc(C2CCCC2)nc2c1ccc1nc(-c3nnco3)cn12` [Compound 2, 2-[2-cyclopentyl-4-(trifluoromethyl)imidazo[1,2-a]1,8-naphthyridin-8-yl]-1,3,4-oxadiazole] was tested, and the EC50 [1] was 0.0501 µM, the EC50 [2] was 0.251 µM and the Emax [3] was 31%. For the same molecule, the “Stat1 phosphorylation (western blot)” value [4] was “Stat1 phosphorylation”.

`FC(F)(F)c1cc(C(F)(F)F)c2ccc3nc(-c4nnco4)cn3c2c1` [Compound 24, 2-[6,8-bis(trifluoromethyl)imidazo[1,2-a]quinolin-2-yl]-1,3,4-oxadiazole] was tested, and the EC50 [1] was 0.631 µM, the EC50 [2] was 3.16 µM and the Emax [3] was 5.75%.

In the case of `FC(F)(F)c1cc(C(F)(F)F)c2ccc3nc(-c4ccco4)cn3c2n1` [Compound 25, 8-(furan-2-yl)-2,4-bis(trifluoromethyl)imidazo[1,2-a]1,8-naphthyridine], the EC50 [1] is reported as 3.98 µM, the EC50 [2] is reported as 3.16 µM and the Emax [3] is reported as 6.5%.

`Cc1cc(C)c2ccc3nc(-c4nnco4)cn3c2n1` [Compound 26, 2-{2,4-dimethylimidazo[1,2-a]1,8-naphthyridin-8-yl}-1,3,4-oxadiazole] gave an EC50 [1] of 6.31 µM, an EC50 [2] of 5.01 µM and an Emax [3] of 8%.

`FC(F)(F)c1cc(C(F)(F)F)c2ccc3nc(-c4ncco4)cn3c2n1` [Compound 27, 2-[2,4-bis(trifluoromethyl)imidazo[1,2-a]1,8-naphthyridin-8-yl]-1,3-oxazole] gave an EC50 [1] of 2.51 µM, an EC50 [2] of 6.31 µM and an Emax [3] of 29%.

`FC(F)(F)c1cc(C(F)(F)F)c2ccc3[nH]c(-c4cnco4)nc3c2n1` [Compound 28, 5-[6,8-bis(trifluoromethyl)-3H-imidazo[4,5-h]quinolin-2-yl]-1,3-oxazole] gave an EC50 [1] of 10 µM, an EC50 [2] of 7.94 µM and an Emax [3] of 11.5%.

For `FC(F)(F)c1cc(Cl)nc2c1ccc1nc(-c3nnco3)cn12` [Compound 29, 2-[2-chloro-4-(trifluoromethyl)imidazo[1,2-a]1,8-naphthyridin-8-yl]-1,3,4-oxadiazole], the EC50 [1] was 6.31 µM, the EC50 [2] was 7.94 µM and the Emax [3] was 10%.

B1: murine IFNα: murine IFNα2 administered intravenously to mice (30 ug/kg) as comparator (protein, UniProt P01573 24-190, looked up)
Interferon alpha-2: CDLPHTYNLRNKRALKVLAQMRRLPFLSCLKDRQDFGFPLEKVDNQQIQKAQAIPVLRDLTQQTLNLFTSKASSAAWNATLLDSFCNDLHQQLNDLQTCLMQQVGVQEPPLTQEDALLAVRKYFHRITVYLREKKHSPCAWEVVRAEVWRALSSSVNLLPRLSEEKE
With B1 the “up-regulation of ISGs at 24 hours” value (ISGs and cytokines mRNA) was “evidently diminished”.

B2: IFNγ: type II interferon used as control treatment (100 U/ml) (protein, UniProt P01579 24-161, looked up)
Interferon gamma: QDPYVKEAENLKKYFNAGHSDVADNGTLFLGILKNWKEESDRKIMQSQIVSFYFKLFKNFKDDQSIQKSVETIKEDMNVKFFNSNKKKRDDFEKLTNYSVTDLNVQRKAIHELIQVMAELSPAAKTGKRKRSQMLFRG
With B2 the “expression of CXCL9 in 2fGH cells” value (human JAK1) was “only observed with IFNγ treatment”.
